Experiments:
[1] = preliminary studies; cited from earlier work
[2] = in vivo; cited from earlier work
[3] = test system: obese subjects (BMI of 30-44 kg/m^2); test: 16-week randomized, double-blind, placebo-controlled trial of zonisamide in obesity; assay type: in vivo, human
Procedure: Objective: Short-term efficacy and safety of zonisamide in the treatment of obesity was evaluated. Inclusion Criteria: (1) Age 21-50; (2) BMI of 30-44 kg/m^2; and (3) Otherwise healthy as determined by the principal investigator. […] Method: 60 subjects were assigned to receive zonisamide or placebo (1:1 ratio) in a randomized, double-blind fashion for 16 weeks in addition to a slightly hypocaloric (500 kcal/day deficit) diet. Zonisamide dosing was flexible with a maximum of 600 mg/day. Zonisamide was started at 100 mg/d. Based on tolerability, the dose was titrated up as follows: Weeks 3-4: 200 mg/d; Weeks 5-6: 300 mg/d; Weeks 7-12: 400 mg/d. At the end of week 12, for those where at least 5% weight loss was not achieved, the dose was further increased to 600 mg/d. The entire dose is given at bedtime. However, based on tolerability, a part of the daily dose may be given in the morning.

beagle dogs = conditions: dog, in vivo, 75 mg/kg/day; cited from earlier work
cats [4] = conditions: cortical freezing in cats; cited from earlier work
[5] = test system: GABA/benzodiazepine receptor ionophore complex; conditions: in vitro; cited from earlier work
cats [6] = conditions: electrical stimulation of the visual cortex; cited from earlier work
rat hippocampal slices = conditions: 10-30 μg/mL; cited from earlier work
kindled rat model = conditions: in vivo; cited from earlier work
patients = patients treated with zonisamide; cited from earlier work
[7] = test system: cultured mouse spinal cord neurons; conditions: 10-30 μg/mL; cited from earlier work
rats = conditions: cortical application of tungstic acid gel in rats; cited from earlier work

| SMILES | effect on appetite and binging [1] | adverse effect on appetite [2] | average bodyweight lost ([3]; 16-week period, all randomized subjects, last observation carried forward, flexible dosing, maximum 600 mg/day, plus hypocaloric diet, p<0.0001 vs placebo) [%] | greater weight loss over placebo treatment (random coefficient regression estimate) ([3]; 16-week study duration, effects for age, race, gender, BMI, percent body fat, p<0.0001) [kg] | efficacy versus placebo as adjunct to hypocaloric diet in treatment of obesity ([3]; 16 weeks) | tolerability / side effects ([3]; 16 weeks, up to 600 mg/day) | subjects who lost ≥5% weight ([3]; 16 weeks, responders/subjects in group, p<0.0003 vs placebo) | body weight change in chronic toxicity test (beagle dogs) | interictal spikes and secondarily generalized seizures (cats [4]) | binding to GABA/benzodiazepine receptor ionophore complex [5] | duration of cortical focal seizures (cats [6]) | effect on neuronal or glial uptake of [^3H]-GABA (rat hippocampal slices) | anticonvulsant activity in threshold for generalized seizures (kindled rat model) | course of weight loss over time (patients) | weight loss as adverse event (patients) | effect on postsynaptic GABA or glutamate responses [7] | effect on synaptically-driven electrical activity [7] | interictal spikes and secondarily generalized seizures (rats) |
| --- | --- | --- | --- | --- | --- | --- | --- | --- | --- | --- | --- | --- | --- | --- | --- | --- | --- | --- |
| CC1(C)O[C@@H]2[C@@H](CO[C@@]3(COS(N)(=O)=O)OC(C)(C)O[C@@H]23)O1 [topiramate] | suppress the appetite and to reduce the amount of binging | – | – | – | – | – | – | – | – | – | – | – | – | – | – | – | – | – |
| NS(=O)(=O)Cc1noc2ccccc12 [zonisamide, 1,2-benzisoxazole-3-methanesulfonamide] | – | loss of appetite as an adverse effect | 5.98 | 4.99 | significantly more effective than placebo | tolerated well with minimal side effects | 17/30 | early body weight losses occurred | suppresses both interictal spikes and the secondarily generalized seizures | binds to the GABA/benzodiazepine receptor ionophore complex in an allosteric fashion which does not produce changes in chloride flux | reduced the duration of cortical focal seizures | without affecting | demonstrated an anticonvulsant activity | the weight loss did not continue over time | weight loss was an adverse event | without affecting postsynaptic GABA or glutamate responses | suppresses synaptically-driven electrical activity | suppresses both interictal spikes and the secondarily generalized seizures |
